What was measured:
ER-α = assay: Immunoblot of ER-α after transfection in MCF7; type: cell-based, human; conditions: MCF7, mimics 60 nmol/L
Description: Immunoblot analysis. For Western blot in FFPE tissues, an established method was followed (Addis et al., 2009, Proteomics 9:3815-23). For MCF7 cell line, let-7 mimics and negative control miRNA (60 nmol/L), or let-7 inhibitors and anti-miR negative control (60 nmol/L) were transfected following the protocol of siPORT NeoFX Transfection Agent (Applied Biosystems), The Western blot procedure was described before (Zhang et al., 2010, J Proteome Res., 9(2):980-989). Antibody information is as follows: ER-α, RB-9016-P1, Thermoscientific; Cyclin D1, sc-8396, Santa Cruz; pS2, ab80782 was Abeam; β-Actin, sc-69879, Santa Cruz.

MCF7 cells = assay: MTT cell proliferation assay in MCF7; type: cell-based, human; conditions: for cell growth (MTT) with E2: MCF7, E2 free medium with addition of 10 nmol/L E2; for cell growth (MTT): MCF7, E2 free medium with or without addition of 10 nmol/L E2 (FIG. 9B-D); for day from which significant effect on proliferation was detected / cell proliferation (MTT): MCF7, normal growth medium; for cell proliferation (MTT): 60 nmol/L
Protocol: (§1) MTT cell proliferation assay. MCF7 cells were transfected with let-7 mimics or negative controls (60 nmol/L) in normal growth medium for 1 day, or in medium with 2.5% charcoal-stripped FBS for 2 days to exhaust endogenous estrogen, following the protocol of siPORT NeoFX Transfection Agent (Applied Biosystems). For the experiment in normal growth medium, 10^4 cells in the volume of 100 μL were seeded in a 96-well plate for 12 hours and assay lasted for another 4 days. For experiments in E2 free medium, 1.5 10^4 cells were seeded in a 96-well plate for 12 hours and then exposed to 10 nmol/L E2, or not, for up to 4 days. For both experiments, each treatment had 12 replicates on the plate. The cells were then incubated in 0.83 mg/mL 3-[4,5-dimethylthiazol-2-yl]-2,5-diphenyltetrazolium bromide (MTT) in growth medium at 37° C. for 4 h and lysed in 100 μL of DMSO at room temperature for 15 min. The absorbance in each well was measured at 490 nm by an ELx800 Absorbance Microplate Reader (Biotek). Cell proliferation was normalized to day 0.

[1] = system: ER-α negative MDA-MB-231 cell line; assay: MTT cell proliferation assay in MDA-MB-231; type: cell-based, human; conditions: MDA-MB-231, DMEM with 10% FBS
Protocol: FIG. 10. The effects of let-7a, let-7b, and let-7i miRNAs on cell proliferation in ER-α negative MDA-MB-231 cell line. Cancer cell proliferation was monitored by MTT assays in the same way as in MCF7 cell line except MDA-MB-231 cells were grown in DMEM with 10% FBS.
as §1

ERK1/2 = assay: Estrogen induced ERK1/2 activation (phos-ERK Western blot) in MDA-MB-231; type: cell-based, human; conditions: MDA-MB-231, 10 nmol/L E2 after estrogen starvation
Protocol: After mixed with gel-loading buffer and boiled for 5 minutes, the protein samples were separated with 10% SDS-PAGE and transferred to a PVDF membrane (Millipore, Billerica, Mass.). The blots were probed with specific first antibodies and appropriate second antibodies. The blots were visualized with enhanced chemiluminescence (ECL) reagents (Pierce, Minneapolis, Minn.) and documented with a Fluor Chem FC2 (Alpha Innotech, Santa Clara, Calif.) image system. Gel density was quantified with Quantity One and expressed as a relative value against β-actin. The anti-ERK1/2 (#9102) and antipERK1/2 (#9106) were purchased from Cell Signaling Technology (Danvers, Mass.). Anti-ER-α66 (RB-9016) was obtained from Thermoscientific (Rockford, Ill.). Anti-ER-α36 antibody was an affinity-purified rabbit polyclonal anti-ER-36 antibody generated as a custom service from Pacific Immunology Corp (Ramona, Calif.). The ER-α36 antibody was raised against a synthetic peptide antigen corresponding to the unique C-terminal 20 aa of ER-α36.
ER-α36 is mainly localized on the plasma membrane and mediates the non-genomic estrogen pathways (Wang et al., 2005, Biochem. Biophys. Res. Commun. 336:1023-7, Wang et al., 2006, Proc. Natl. Acad. Sci. U.S.A., 103:9063-8). We reasoned that the inhibition on ER-α36 expression by let-7 family miRNAs might dampen the non-genomic estrogen pathway. […]

[2] = Stability of miRNAs in serum (room temperature, freeze/thaw); type: physicochemical, human; conditions: serum from a healthy person, freeze/thaw up to eight times
Protocol: (§2) FIG. 21. Stability of miRNAs in room temperature for number of time points. 300 μl of sera from a healthy person was thawed on ice and lysed with an equal volume of 2× Denaturing Solution (Ambion). RNA was isolated spiked sera using the mirVana PARIS kit following the manufacturer's protocol for liquid samples (Ambion). RNA was eluted with 50 μl of nuclease-free water. This experiment was performed in triplicates.
as §2, with “22.” for “21.”, “freeze/thaws.” for “room temperature for number of time points.”, “ice, exogenous miRNAs were spiked in,” for “ice”, “and then performed freeze/thaw cycles for the indicated times, then” for “and”
Second, we wanted to know whether our lab conditions such as temperature and freezing and thawing affect the stability of miRNAs. We selected a serum sample from healthy […], and incubated in room temperature for a series of time points (spiked three exogenous miRNAs as external controls) (FIG. 21). As expected, the selected miRNAs were very stable throughout the experiment. This observation is in consistent with the literature (Mitchell et al., 2008, Proc. Natl. Acad. Sci. U.S.A 105:10513-8). […]

Row | Substance | expression of ER-α (protein) (ER-α; after 2 days) | expression of ER-α (protein) (ER-α; after 6 days) | cell growth (MTT) with E2 (MCF7 cells) | cell growth (MTT) (MCF7 cells) | day from which significant effect on proliferation was detected (MCF7 cells) | cell proliferation (MTT) (MCF7 cells) | cell growth (MTT) [1] | estrogen induced activation of the ERK1/2 (nongenomic estrogen pathway) (ERK1/2) | stability in repeated freeze/thaws [2]
1 | let-7b: let-7b miRNA (mimic), 3′-UUGGUGUGUUGGAUGAUGGAGU-5′ (SEQ ID NO:8) (chemistry not given here; listed 3' to 5') | significantly depressed the expression of ER-α | dramatically down-regulated the expression of ER-α | consistent inhibition | strongly inhibited | 2 days | significantly inhibited cell proliferation | None of three miRNAs significantly inhibited cell growth | significantly inhibited | relatively stable
2 | let-7i: let-7i miRNA (mimic), 3′-UUGUCGUGUUUGAUGAUGGAGU-5′ (SEQ ID NO:14) (chemistry not given here; listed 3' to 5') | significantly depressed the expression of ER-α | dramatically down-regulated the expression of ER-α | consistent inhibition | strongly inhibited | 3 days | significantly inhibited cell proliferation | None of three miRNAs significantly inhibited cell growth | significantly inhibited | relatively stable

Reference: patent US8841269B2, “Polynucleotides for use in treating and diagnosing cancers” (Creighton University, priority 2010, dated 2014)
